According to patent US6379649B1, “Imidazo(1,2-a)pyridines as peripheral benzodiazepine receptor binding agents” (Australian Nuclear Science & Technology Organisation, priority 1998, dated 2002):

Test: In vivo biodistribution of radiolabelled compounds in rats
Excerpt: In vivo biodistribution of radiolabelled compounds of the invention indicated high uptake in the tissues which have known PBR sites. Tables 2 to 4 show the biodistribution of the compounds of Examples 1-3, in which the iodine atom is radiolabelled, when administered to rats.

Question: Which results are given for `CCN(CC)C(=O)Cc1c(-c2ccc([123I])cc2)nc2ccc(Cl)cn12` [^123-I Example 3]?
Answer: Biodistribution (% ID/g organ) Adrenals (5 Min): 2.11 ± 0.12 % ID/g organ; Biodistribution (% ID/g organ) Adrenals (15 Min): 2.03 ± 0.8 % ID/g organ; Biodistribution (% ID/g organ) Adrenals (24 Hrs): 4.56 ± 0.74 % ID/g organ; Biodistribution (% ID/g organ) Adrenals (30 Min): 2.42 ± 0.36 % ID/g organ; Biodistribution (% ID/g organ) Adrenals (48 Hrs): 4.87 ± 0.55 % ID/g organ; Biodistribution (% ID/g organ) Adrenals (60 Min): 2.83 ± 0.41 % ID/g organ; Biodistribution (% ID/g organ) Adrenals (180 Min): 4.1 ± 0.80 % ID/g organ; Biodistribution (% ID/g organ) Adrenals (240 Min): 4.32 ± 0.60 % ID/g organ; Biodistribution (% ID/g organ) Adrenals (360 Min): 5.28 ± 0.95 % ID/g organ; Biodistribution (% ID/g organ) Adrenals (480 Min): 4.22 ± 0.12 % ID/g organ; Biodistribution (% ID/g organ) Blood (5 Min): 0.46 ± 0.08 % ID/g organ; Biodistribution (% ID/g organ) Blood (15 Min): 0.16 ± 0.02 % ID/g organ; Biodistribution (% ID/g organ) Blood (24 Hrs): 0.02 ± 0.001 % ID/g organ; Biodistribution (% ID/g organ) Blood (30 Min): 0.12 ± 0.03 % ID/g organ; Biodistribution (% ID/g organ) Blood (48 Hrs): 0.01 ± 0.001 % ID/g organ; Biodistribution (% ID/g organ) Blood (60 Min): 0.06 ± 0.02 % ID/g organ; Biodistribution (% ID/g organ) Blood (180 Min): 0.04 ± 0.001 % ID/g organ; Biodistribution (% ID/g organ) Blood (240 Min): 0.05 ± 0.001 % ID/g organ; Biodistribution (% ID/g organ) Blood (360 Min): 0.04 ± 0.001 % ID/g organ; Biodistribution (% ID/g organ) Blood (480 Min): 0.03 ± 0.001 % ID/g organ; Biodistribution (% ID/g organ) Brain (5 Min): 0.33 ± 0.04 % ID/g organ; Biodistribution (% ID/g organ) Brain (15 Min): 0.2 ± 0.02 % ID/g organ; Biodistribution (% ID/g organ) Brain (24 Hrs): 0.01 ± 0.001 % ID/g organ; Biodistribution (% ID/g organ) Brain (30 Min): 0.15 ± 0.01 % ID/g organ; Biodistribution (% ID/g organ) Brain (48 Hrs): 0.01 ± 0.001 % ID/g organ; Biodistribution (% ID/g organ) Brain (60 Min): 0.08 ± 0.02 % ID/g organ; Biodistribution (% ID/g organ) Brain (180 Min): 0.05 ± 0.001 % ID/g organ; Biodistribution (% ID/g organ) Brain (240 Min): 0.05 ± 0.01 % ID/g organ; Biodistribution (% ID/g organ) Brain (360 Min): 0.05 ± 0.02 % ID/g organ; Biodistribution (% ID/g organ) Brain (480 Min): 0.03 ± 0.001 % ID/g organ; Biodistribution (% ID/g organ) Heart (5 Min): 2.63 ± 0.30 % ID/g organ; Biodistribution (% ID/g organ) Heart (15 Min): 2.39 ± 035 % ID/g organ; Biodistribution (% ID/g organ) Heart (24 Hrs): 0.39 ± 0.03 % ID/g organ; Biodistribution (% ID/g organ) Heart (30 Min): 2.44 ± 0.28 % ID/g organ; Biodistribution (% ID/g organ) Heart (48 Hrs): 0.17 ± 0.002 % ID/g organ; Biodistribution (% ID/g organ) Heart (60 Min): 2.65 ± 0.63 % ID/g organ; Biodistribution (% ID/g organ) Heart (180 Min): 2.59 ± 0.16 % ID/g organ; Biodistribution (% ID/g organ) Heart (240 Min): 2.49 ± 0.22 % ID/g organ; Biodistribution (% ID/g organ) Heart (360 Min): 2.13 ± 0.45 % ID/g organ; Biodistribution (% ID/g organ) Heart (480 Min): 1.48 ± 0.12 % ID/g organ; Biodistribution (% ID/g organ) Kidney (5 Min): 1.73 ± 0.38 % ID/g organ; Biodistribution (% ID/g organ) Kidney (15 Min): 2.11 ± 0.31 % ID/g organ; Biodistribution (% ID/g organ) Kidney (24 Hrs): 0.25 ± 0.03 % ID/g organ; Biodistribution (% ID/g organ) Kidney (30 Min): 2.31 ± 0.02 % ID/g organ; Biodistribution (% ID/g organ) Kidney (48 Hrs): 0.12 ± 0.01 % ID/g organ; Biodistribution (% ID/g organ) Kidney (60 Min): 1.87 ± 0.66 % ID/g organ; Biodistribution (% ID/g organ) Kidney (180 Min): 1.71 ± 0.17 % ID/g organ; Biodistribution (% ID/g organ) Kidney (240 Min): 1.37 ± 0.18 % ID/g organ; Biodistribution (% ID/g organ) Kidney (360 Min): 1.43 ± 0.25 % ID/g organ; Biodistribution (% ID/g organ) Kidney (480 Min): 0.87 ± 0.15 % ID/g organ; Biodistribution (% ID/g organ) Liver (5 Min): 0.87 ± 0.13 % ID/g organ; Biodistribution (% ID/g organ) Liver (15 Min): 0.93 ± 0.06 % ID/g organ; Biodistribution (% ID/g organ) Liver (24 Hrs): 0.06 ± 0.001 % ID/g organ; Biodistribution (% ID/g organ) Liver (30 Min): 0.76 ± 0.01 % ID/g organ; Biodistribution (% ID/g organ) Liver (48 Hrs): 0.04 ± 0.001 % ID/g organ; Biodistribution (% ID/g organ) Liver (60 Min): 0.41 ± 0.14 % ID/g organ; Biodistribution (% ID/g organ) Liver (180 Min): 0.28 ± 0.02 % ID/g organ; Biodistribution (% ID/g organ) Liver (240 Min): 0.23 ± 0.03 % ID/g organ; Biodistribution (% ID/g organ) Liver (360 Min): 0.23 ± 0.02 % ID/g organ; Biodistribution (% ID/g organ) Liver (480 Min): 0.16 ± 0.01 % ID/g organ; Biodistribution (% ID/g organ) Lungs (5 Min): 13.16 ± 1.24 % ID/g organ; Biodistribution (% ID/g organ) Lungs (15 Min): 6.98 ± 1.87 % ID/g organ; Biodistribution (% ID/g organ) Lungs (24 Hrs): 0.31 ± 0.06 % ID/g organ; Biodistribution (% ID/g organ) Lungs (30 Min): 4.91 ± 0.22 % ID/g organ; Biodistribution (% ID/g organ) Lungs (48 Hrs): 0.17 ± 0.02 % ID/g organ; Biodistribution (% ID/g organ) Lungs (60 Min): 2.76 ± 0.80 % ID/g organ; Biodistribution (% ID/g organ) Lungs (180 Min): 1.63 ± 0.07 % ID/g organ; Biodistribution (% ID/g organ) Lungs (240 Min): 1.38 ± 0.09 % ID/g organ; Biodistribution (% ID/g organ) Lungs (360 Min): 1.21 ± 0.27 % ID/g organ; Biodistribution (% ID/g organ) Lungs (480 Min): 0.75 ± 0.07 % ID/g organ; Biodistribution (% ID/g organ) Olfactive bulbs (5 Min): 0.44 ± 0.08 % ID/g organ; Biodistribution (% ID/g organ) Olfactive bulbs (15 Min): 0.31 ± 0.03 % ID/g organ; Biodistribution (% ID/g organ) Olfactive bulbs (24 Hrs): 0.09 ± 0.001 % ID/g organ; Biodistribution (% ID/g organ) Olfactive bulbs (30 Min): 0.26 ± 0.03 % ID/g organ; Biodistribution (% ID/g organ) Olfactive bulbs (48 Hrs): 0.07 ± 0.001 % ID/g organ; Biodistribution (% ID/g organ) Olfactive bulbs (60 Min): 0.2 ± 0.07 % ID/g organ; Biodistribution (% ID/g organ) Olfactive bulbs (180 Min): 0.16 ± 0.02 % ID/g organ; Biodistribution (% ID/g organ) Olfactive bulbs (240 Min): 0.18 ± 0.03 % ID/g organ; Biodistribution (% ID/g organ) Olfactive bulbs (360 Min): 0.16 ± 0.04 % ID/g organ; Biodistribution (% ID/g organ) Olfactive bulbs (480 Min): 0.16 ± 0.03 % ID/g organ
